Laboratory results taken from publication PMC5874719, “A π-Halogen Bond of Dibenzofuranones with the Gatekeeper Phe113 in Human Protein Kinase CK2 Leads to Potent Tight Binding Inhibitors” (Pharmaceuticals, 2018).

Columns and labels:
[1] = test system: caspases 3 and 7 in LNCaP cells; assay: Caspase-Glo 3/7 assay; assay type: cell-based, human; details: for caspase 3/7 activity, maximum obtained: 25 or 50 µM, 24 or 48 h; for caspase 3/7 activity: 50 µM, 48 h
Text: Reducing the activity of CK2 by the inhibitors is supposed to overcome the antiapoptotic effect of the enzyme and cells are induced to undergo apoptosis. […] In consequence, we analyzed in the next experiments whether the cells were killed by apoptosis. Hallmark of apoptosis is the activation of the key effector caspases 3 and 7 which ends in the cleavage of poly (ADP ribose) polymerase PARP1. The full-length PARP1 is cleaved by the caspases to an 89 and a 24 kDa fragment. These events of late apoptotic signaling were analyzed in ARPE19 and LNCaP cells grown in the presence and in the absence of dibenzofurans. Inhibitor concentrations of 25 and 50 µM were used and were applied for 24 and 48 h. In cell lysates of LNCaP and ARPE19 cells the activity of caspases 3 and 7 was determined subsequently by a luminescence based assay (Figure 6A).
(A) ARPE19 or LNCaP cells were treated with DMSO as control (0 μM) or with 25 or 50 μM 4b, 4a or 5 for 24 or 48 h. Activity of caspases 3 and 7 was determined using the luminescent Caspase-Glo® 3/7 assay according to the technical bulletin of the manufacturer. Median relative light units (RLU) + standard deviation from at least three independent experiments are shown in the bar graph. (B) Cells were treated as described before. 75 μg cell extract was separated in a 10% SDS polyacrylamide gel and analyzed in a Western blot analysis with a rabbit polyclonal antibody against PARP1. + is a positive control for PARP cleavage.
The activity of the apoptotic key effector caspases 3 and 7 in cell extracts was determined using the Caspase-Glo 3/7 assay according to the protocol of the manufacturer (Promega, Mannheim, Germany).

[2] = target: T1, surface displayed CK2α + CK2β (CK2α containing human CK2 holoenzyme) (Homo sapiens, UniProt P68400); assay: whole-cell CK2 selectivity assay, holoenzyme surface displayed on E. coli; assay type: biochemical; details: 600 µM ATP, 100 µM substrate peptide
T1 construct: surface-display (autodisplay) carrier protein; made in house; host or cells: Escherichia coli BL21 (DE3), enzyme left on the cell surface
Text: We recently reported a whole cell CK2 activity assay, which can be used for testing the selectivity of compounds towards CK2α and CK2α’ [47]. It is based on the surface display of the human CK2 subunits, either α or α’ together with β on E. coli, were they are able to form a functional tetrameric holoenzymes, either ααββ or α’α’ββ, depending on which α isoform has been expressed. This technique was used to investigate whether 4a or 5 have preference to one of the two catalytic isoforms of CK2.
For this purpose, their IC50 were determined following the protocol of the recently described whole-cell CK2 selectivity assay. In summary, 78 µL of a bacterial suspension of Escherichia coli BL21 (DE3) either surface displaying CK2α + CK2β or CK2α’ + CK2β in kinase buffer (50 mM Tris/HCl, pH 8.5, 100 mM NaCl, 10 mM MgCl2 and 1 mM DTT) were supplemented with 2 µL of the test compound dissolved in DMSO and incubated at 37 °C and 400 rpm for 10 min. CK2 reactions were started by the addition of 120 µL of assay buffer (25 mM Tris/HCl, pH 7.5, 150 mM NaCl, 5 mM MgCl2, 1 mM DTT, 167 µM substrate peptide […] and 1 mM ATP) leading to a total reaction volume of 200 µL with final concentrations of 100 µM for the substrate peptide and 600 µM for ATP. […] After the samples were incubated for 120 min at 37 °C and 400 rpm, the CK2 presenting bacteria were removed by centrifugation (3850× g, 5 min, 4 °C). The obtained supernatants were transferred to the wells of a 96 well-microplate and finally supplemented with EDTA to a concentration of 12.5 mM to definitely stop the enzymatic reactions. The samples were then subjected to a Beckman Coulter pa800 plus (Krefeld, Germany) CE system and analyzed for phosphorylation of the substrate peptide. Samples containing pure DMSO served as controls for 0% inhibition and samples additionally lacking ATP served as controls for 100% inhibition. […] IC50 values were calculated from the resulting dose-response curves.
CK2α’ + CK2β (right column).
Mean values ± standard errors of
the means (SEM) are shown. […]

T1 sequence (P68400 whole entry): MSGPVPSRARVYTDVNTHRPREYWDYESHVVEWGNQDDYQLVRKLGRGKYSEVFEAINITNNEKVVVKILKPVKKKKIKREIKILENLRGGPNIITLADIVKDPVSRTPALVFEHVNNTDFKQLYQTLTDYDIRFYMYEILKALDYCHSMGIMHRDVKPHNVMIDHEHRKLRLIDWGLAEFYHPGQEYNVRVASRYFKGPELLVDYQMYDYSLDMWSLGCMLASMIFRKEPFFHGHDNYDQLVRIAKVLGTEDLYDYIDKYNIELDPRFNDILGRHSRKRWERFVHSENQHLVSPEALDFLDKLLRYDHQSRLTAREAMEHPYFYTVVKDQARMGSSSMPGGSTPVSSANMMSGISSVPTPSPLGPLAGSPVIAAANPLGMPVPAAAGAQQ
T1 sequence (P67870 whole entry partner): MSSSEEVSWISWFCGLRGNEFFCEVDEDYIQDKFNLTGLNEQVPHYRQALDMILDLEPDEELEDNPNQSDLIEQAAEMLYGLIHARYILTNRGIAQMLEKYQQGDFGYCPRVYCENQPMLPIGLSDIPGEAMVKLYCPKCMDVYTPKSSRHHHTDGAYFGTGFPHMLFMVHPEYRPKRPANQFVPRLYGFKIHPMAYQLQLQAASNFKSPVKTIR

SMILES | caspase 3/7 activity, maximum obtained [1] | IC50 [2] | caspase 3/7 activity [1]
COc1ccc(N/C=C2\C(=O)CCc3c2oc2cc(Cl)c(O)c(Cl)c32)cc1 [4a, 7,9-dichloro-1,2-dihydro-8-hydroxy-4-[(4-methoxyphenylamino)methylene]dibenzo[b,d]furan-3(2H)-one] | 17,000 RLU | 0.062 µM | –
COc1ccc(/N=C/c2c(O)ccc3c2oc2cc(Cl)c(O)c(Cl)c23)cc1 [compound 5, (E)-1,3-dichloro-6-[(4-methoxyphenylimino)methyl]dibenzo[b,d]furan-2,7-diol] | 55,000 RLU | 0.098 µM | > 50,000 RLU
Cc1ccc(NC=C2C(=O)CCc3c2oc2c(Cl)c(Cl)c(O)cc32)cc1 [4b, 6,7-dichloro-1,4-dihydro-8-hydroxy-4-[(4-methylphenylamino)methylene]dibenzo[b,d]furan-3(2H)-one] | – | 0.877 µM | > 50,000 RLU
